Source: ChEMBL document CHEMBL3994622, “Design and synthesis of new RAF kinase-inhibiting antiproliferative quinoline derivatives. Part 2: Diarylurea derivatives” (Eur J Med Chem, 2017)

Experiments:
Assay type in all cases: functional
[1] = test system: CCRF-CEM; test: Growth inhibition of human CCRF-CEM cells assessed as cell growth at 0.003 uM incubated for 48 hrs by sulforhodamine B assay relative to control; conditions: read-out: Activity
[2] = test system: HCT-116; test: Growth inhibition of human HCT116 cells assessed as cell growth at 0.3 uM incubated for 48 hrs by sulforhodamine B assay relative to control; conditions: HCT-116, 48 h, read-out: Activity
[3] = test system: 786-0; test: Growth inhibition of human 786-0 cells assessed as cell growth at 3 uM incubated for 48 hrs by sulforhodamine B assay relative to control; conditions: 786-0, 48 h, read-out: Activity
[4] = test system: MOLT-4; test: Growth inhibition of human MOLT4 cells assessed as cell growth at 3 uM incubated for 48 hrs by sulforhodamine B assay relative to control; conditions: MOLT-4, 48 h, read-out: Activity
[5] = test system: SK-OV-3; test: Growth inhibition of human SKOV3 cells assessed as cell growth at 0.1 uM incubated for 48 hrs by sulforhodamine B assay relative to control; conditions: SK-OV-3, 48 h, read-out: Activity
[6] = test system: UACC-62; test: Growth inhibition of human UACC62 cells assessed as cell growth at 100 uM incubated for 48 hrs by sulforhodamine B assay relative to control; conditions: UACC-62, 48 h, read-out: Activity
[7] = test system: SF-268; test: Growth inhibition of human SF268 cells assessed as cell growth at 1 uM incubated for 48 hrs by sulforhodamine B assay relative to control; conditions: SF-268, 48 h, read-out: Activity
[8] = test system: KM12; test: Growth inhibition of human KM12 cells assessed as cell growth at 10 uM incubated for 48 hrs by sulforhodamine B assay relative to control; conditions: KM12, 48 h, read-out: Activity
[9] = test system: SW-620; test: Growth inhibition of human SW620 cells assessed as cell growth at 1 uM incubated for 48 hrs by sulforhodamine B assay relative to control; conditions: SW-620, 48 h, read-out: Activity
[10] = test system: M14; test: Growth inhibition of human M14 cells assessed as cell growth at 0.005 uM incubated for 48 hrs by sulforhodamine B assay relative to control; conditions: M14, 48 h, read-out: Activity
[11] = test system: RPMI-8226; test: Growth inhibition of human RPMI8226 cells assessed as cell growth at 0.5 uM incubated for 48 hrs by sulforhodamine B assay relative to control; conditions: RPMI-8226, 48 h, read-out: Activity
[12] = test system: U-251; test: Growth inhibition of human U251 cells assessed as cell growth at 50 uM incubated for 48 hrs by sulforhodamine B assay relative to control; conditions: U-251, 48 h, read-out: Activity
[13] = test system: HCC 2998; test: Growth inhibition of human HCC2998 cells assessed as cell growth at 50 uM incubated for 48 hrs by sulforhodamine B assay relative to control; conditions: HCC 2998, 48 h, read-out: Activity
[14] = test system: A549; test: Growth inhibition of human A549/ATCC cells assessed as cell growth at 0.005 uM incubated for 48 hrs by sulforhodamine B assay relative to control; conditions: A549, 48 h, read-out: Activity
[15] = test system: K562; test: Growth inhibition of human K562 cells assessed as cell growth at 0.005 uM incubated for 48 hrs by sulforhodamine B assay relative to control; conditions: K562, 48 h, read-out: Activity
[16] = test system: T47D; test: Growth inhibition of human T47D cells assessed as cell growth at 50 uM incubated for 48 hrs by sulforhodamine B assay relative to control; conditions: read-out: Activity
[17] = test system: MDA-MB-435; test: Growth inhibition of human MDA-MB-435 cells assessed as cell growth at 0.05 uM incubated for 48 hrs by sulforhodamine B assay relative to control; conditions: MDA-MB-435, 48 h, read-out: Activity
[18] = test system: MOLT-4; test: Growth inhibition of human MOLT4 cells assessed as cell growth at 0.5 uM incubated for 48 hrs by sulforhodamine B assay relative to control; conditions: MOLT-4, 48 h, read-out: Activity
[19] = test system: DU-145; test: Growth inhibition of human DU145 cells assessed as cell growth at 50 uM incubated for 48 hrs by sulforhodamine B assay relative to control; conditions: DU-145, 48 h, read-out: Activity
[20] = test system: HCC 2998; test: Growth inhibition of human HCC2998 cells assessed as cell growth at 0.005 uM incubated for 48 hrs by sulforhodamine B assay relative to control; conditions: HCC 2998, 48 h, read-out: Activity
[21] = test system: SN12C; test: Growth inhibition of human SN12C cells assessed as cell growth at 50 uM incubated for 48 hrs by sulforhodamine B assay relative to control; conditions: read-out: Activity
[22] = test system: SF-268; test: Growth inhibition of human SF268 cells assessed as cell growth at 5 uM incubated for 48 hrs by sulforhodamine B assay relative to control; conditions: SF-268, 48 h, read-out: Activity
[23] = test system: TK-10; test: Growth inhibition of human TK10 cells assessed as cell growth at 50 uM incubated for 48 hrs by sulforhodamine B assay relative to control; conditions: TK-10, 48 h, read-out: Activity
[24] = test system: NCI/ADR-RES; test: Growth inhibition of human NCI/ADR-RES cells assessed as cell growth at 5 uM incubated for 48 hrs by sulforhodamine B assay relative to control; conditions: read-out: Activity
[25] = test system: BT-549; test: Growth inhibition of human BT549 cells assessed as cell growth at 5 uM incubated for 48 hrs by sulforhodamine B assay relative to control; conditions: BT-549, 48 h, read-out: Activity
[26] = test system: MDA-MB-231; test: Growth inhibition of human MDA-MB-231 cells assessed as cell growth at 50 uM incubated for 48 hrs by sulforhodamine B assay relative to control; conditions: MDA-MB-231, 48 h, read-out: Activity
[27] = test system: T47D; test: Growth inhibition of human T47D cells assessed as cell growth at 0.005 uM incubated for 48 hrs by sulforhodamine B assay relative to control; conditions: read-out: Activity
[28] = test system: MDA-MB-231; test: Growth inhibition of human MDA-MB-231 cells assessed as cell growth at 0.005 uM incubated for 48 hrs by sulforhodamine B assay relative to control; conditions: MDA-MB-231, 48 h, read-out: Activity
[29] = test system: SK-OV-3; test: Growth inhibition of human SKOV3 cells assessed as cell growth at 0.05 uM incubated for 48 hrs by sulforhodamine B assay relative to control; conditions: SK-OV-3, 48 h, read-out: Activity
[30] = test system: NCI-H322M; test: Growth inhibition of human NCI-H322M cells assessed as cell growth at 50 uM incubated for 48 hrs by sulforhodamine B assay relative to control; conditions: read-out: Activity
[31] = test system: SNB-19; test: Growth inhibition of human SNB19 cells assessed as cell growth at 0.005 uM incubated for 48 hrs by sulforhodamine B assay relative to control; conditions: SNB-19, 48 h, read-out: Activity
[32] = test system: A498; test: Growth inhibition of human A498 cells assessed as cell growth at 0.005 uM incubated for 48 hrs by sulforhodamine B assay relative to control; conditions: A498, 48 h, read-out: Activity
[33] = test system: NCI-H522; test: Growth inhibition of human NCI-H522 cells assessed as cell growth at 50 uM incubated for 48 hrs by sulforhodamine B assay relative to control; conditions: NCI-H522, 48 h, read-out: Activity
[34] = test system: A549; test: Growth inhibition of human A549/ATCC cells assessed as cell growth at 5 uM incubated for 48 hrs by sulforhodamine B assay relative to control; conditions: A549, 48 h, read-out: Activity
[35] = test system: U-251; test: Growth inhibition of human U251 cells assessed as cell growth at 0.5 uM incubated for 48 hrs by sulforhodamine B assay relative to control; conditions: U-251, 48 h, read-out: Activity

COc1cc2cc(Oc3ccc(NC(=O)Nc4ccc(Cl)c(C(F)(F)F)c4)cc3)c(C)nc2cc1OC
growth at 0.003 µM [1]: 111%
growth at 0.3 µM [2]: 91%
growth at 3 µM [3]: 16%
growth at 3 µM [4]: 10%

COc1cc2cc(Oc3ccc(NC(=O)Nc4ccc(Cl)c(Cl)c4)cc3)c(C)nc2cc1OC
growth at 0.1 µM [5]: 107%
growth at 100 µM [6]: -63%
growth at 1 µM [7]: 110%
growth at 10 µM [8]: 8%
growth at 1 µM [9]: 107%

COc1cc2cc(Oc3ccc(NC(=O)Nc4cc(C(F)(F)F)cc(C(F)(F)F)c4)cc3)c(C)nc2cc1OC
growth at 0.1 µM [5]: 104%
growth at 100 µM [6]: -79%
growth at 1 µM [7]: 79%
growth at 10 µM [8]: -75%
growth at 1 µM [9]: 81%

COc1cc2cc(Oc3ccc(NC(=O)Nc4cccc(C(F)(F)F)c4)cc3)c(C)nc2cc1OC
growth at 0.005 µM [10]: 98%
growth at 0.5 µM [11]: 86%
growth at 50 µM [12]: -99%
growth at 50 µM [13]: 4%
growth at 0.005 µM [14]: 98%
growth at 0.005 µM [15]: 102%
growth at 50 µM [16]: -49%
growth at 0.05 µM [17]: 96%
growth at 0.5 µM [18]: 95%
growth at 50 µM [19]: -32%
growth at 0.005 µM [20]: 99%
growth at 50 µM [21]: -21%
growth at 5 µM [22]: 31%
growth at 50 µM [23]: -46%
growth at 5 µM [24]: 11%
growth at 5 µM [25]: 7%
growth at 50 µM [26]: -82%
growth at 0.005 µM [27]: 90%
growth at 0.005 µM [28]: 93%
growth at 0.05 µM [29]: 95%
growth at 50 µM [30]: -29%
growth at 0.005 µM [31]: 92%
growth at 0.005 µM [32]: 113%
growth at 50 µM [33]: -61%
growth at 5 µM [34]: 9%
growth at 0.5 µM [35]: 94%

Cc1nc2cc(O)c(O)cc2cc1Oc1ccc(NC(=O)Nc2ccc(Cl)c(Cl)c2)cc1
growth at 0.003 µM [1]: 97%
growth at 0.3 µM [2]: 90%
growth at 3 µM [3]: 98%
growth at 3 µM [4]: 87%
